Assay results reported in patent EP0046707B1, “Derivatives of 4-aminobutyric acid and the medicines especially active on the central nervous system containing them” (priority 1980, dated 1982).
Read-outs that look alike come from different tables or passages of the source.

How the values were obtained:
souris [1] = experiment: Actography (locomotor activity, two perpendicular light beams); format: in vivo; details: mouse, 500 mg/kg oral; grouping in words
Experimental: La mesure de l'actographie est effectuée chez la souris 45 min. après l'administration du produit. On opère sur des lots de 12 animaux, chacun d'eux étant isolé pendant 10 min. avant la mesure. Le comptage des scores est effectué par coupure de deux faisceaux lumineux perpendiculaires.
Dans le tableau IV ci-après sont rassemblés les résultats obtenus avec divers produits de l'invention administrés à la dose de 500 mg/kg par voie orale. Les résultats sont exprimés en pourcentage de variation des scores obtenus par rapport à des animaux témoins non traités.
On peut constater que les produits se répartissent en deux groupes : • ceux provoquant de l'hypomotilité tels que 40217, 40039, 40271, 40272, 40319; dans le cas où les animaux traités présentent une perte du réflexe de retournement, ce qui traduit l'effet de narcose propre du produit, on a noté PRR; • ceux provoquant de l'hypermotilité, tels que 40142, 40398, 40397, 40404, 40253, 40355, 40209; pour préciser les résultats obtenus, l'étude pour deux produits a été reprise en effet-dose suivant le même protocole. • Les résultats obtenus figurent dans le tableau V ci-après.

souris [2] = experiment: Potentiation of pentobarbital narcosis (loss of righting reflex); format: in vivo; details: mouse; for ED50: po, p. os 1 h before pentobarbital 20 mg/kg i.p., unit not given for DE 50, read-out: dose (p. os) provoquant 50 % d'induction de narcose (DE 50); for Pourcentage d'animaux en narcose à 500 mg/kg p. os: 500 mg/kg p. os 1 h before pentobarbital 20 mg/kg i.p.
Experimental: Les produits à étudier ont été administrés per os chez la souris à la dose de 500 mg/kg, 1 h avant le pentobarbital injecté par voie intrapéritonéale à raison de 20 mg/kg.
On détermine le pourcentage des animaux ayant perdu le réflexe de retournement. Les résultats sont exprimés en pourcentage ou, dans quelques cas, en dose efficace 50 (DE 50) ou dose provoquant la narcose chez 50 % des animaux traités.
Les résultats figurent dans le tableau VI ci-après.

souris [3] = experiment: Anticonvulsant effect against bicuculline-induced tonic seizures; format: in vivo; details: 1 h; mouse, bicuculline 1 mg/kg i.v. 60 min after oral dosing; read-out: Dose efficace médiane de protection des crises toniques (DE 50) Bicuculline
Experimental: (§1) L'effet anticonvulsivant a été déterminé vis-à-vis des crises convulsives provoquées par l'électrochoc ou par la bicuculline.
La bicuculline est administrée à la souris par voie intraveineuse à raison de 1 mg/kg, 60 min après le produit à étudier donné per os. On note l'effet protecteur obtenu vis-à-vis des crises toniques.
(§2) En opérant sur divers lots d'animaux avec des doses différentes du produit à étudier, on peut déterminer la dose efficace médiane (DE 50).
(§3) Les résultats sont rassemblés dans le tableau VIII ci-après et montrent les propriétés anticonvulsivan- tes nettes des produits étudiés.

souris [4] = experiment: Anticonvulsant effect against electroshock seizures; format: in vivo; details: 1 h; mouse, electroshock 12.5 V for 0.5 s, 60 min after oral dosing; read-out: Dose efficace médiane de protection des crises toniques (DE 50) Electrochoc
Experimental: as §1
L'électrochoc (12,5 V pendant 0,5 s) est effectué chez la souris 60 min après l'administration du produit par voie orale.
as §2, §3

[5] = test system: acide homovanillique (HVA); experiment: Effect on central dopaminergic activity (homovanillic acid accumulation in whole brain); format: in vivo, souris; details: mouse whole brain, 500 mg/kg p.os
Experimental: L'effet des produits sur l'activité dopaminergique centrale a été étudié par la mesure de l'accumulation de l'acide homovanillique sur une période de 24 h après l'administration des produits chez la souris.
Le taux d'acide homovanillique (HVA) est évalué dans le cerveau entier, les animaux reçoivent une injection de probenecid (200 mg/kg i.p.) 1 h 30 min avant le sacrifice (lot de 10 animaux).

[6] = Acute toxicity (mortality over 24 h); details: in vivo, po, mouse, observed 24 h
Experimental: Les produits à étudier sont administrés par voie orale aux doses de 500 et 1 000 mg/kg à des lots de souris. On observe les souris pendant 24 h et note la mortalité.
Les résultats exprimés en pourcentage de mortalité figurent dans le tableau XI ci-après.

[7] = 500 mg/kg p. os, read-out: p. cent de mortalité à 500 mg/kg p. os
[8] = 1000 mg/kg p. os, read-out: p. cent de mortalité à 1000 mg/kg p. os

Compound | hypomotilité / hypermotilité (souris [1]) | ED50 (souris [3]) | mortality at 24 h [6, 7] | mortality at 24 h [6, 8] | Pourcentage d'animaux en narcose à 500 mg/kg p. os (souris [2]) | also measured
CCCCNC(=O)CCCNC(=O)CCC [40 142] | hypermotilité | 325 mg/kg | 0% | 0% |  | ED50 (souris [2]): 297 mg/kg; ED50 (souris [4]): 150 mg/kg; Taux de HVA en ([5]; 2 h): 379 ± 11 ng/g; Taux de HVA en ([5]; 4 h): 793 ± 52 ng/g; Taux de HVA en ([5]; 6 h): 571 ± 23 ng/g; Taux de HVA en ([5]; 24 h): 290 ± 16 ng/g; Taux de HVA en ([5]; time 0 (baseline)): 521 ± 29 ng/g
CCCC(=O)NCCCC(=O)N1CCOCC1 [40 206] |  |  | 0% | 0% | 0% | 
CCCC(=O)NCCCC(=O)NC1CCCC1 [40 209] | hypermotilité |  | 0% | 20% |  | 
CCCC(=O)NCCCC(=O)N(C(C)CC)C(C)CC (stereo not drawn) [40 216] |  |  | 0% | 100% | 100% | 
CCCC(=O)NCCCC(=O)N(CCC)CCC [40 217] | hypomotilité |  | 0% | 0% | 0% | 
CCCCNC(=O)CCNC(=O)CCC [40 253] | hypermotilité | < 500 mg/kg | 0% | 0% | 50% | ED50 (souris [4]): 500 mg/kg
CCCCNC(=O)CCCNC(=O)C(C)(C)C [40 254] |  | < 500 mg/kg | 0% | 20% | 50% | 
CCCCN(CCCC)C(=O)CCNC(=O)CCC [40 271] | hypomotilité | < 500 mg/kg | 0% | 100% | 100% | ED50 (souris [4]): 500 mg/kg
CCCCN(CCCC)C(=O)CCCNC(=O)C(C)(C)C [40 272] | hypomotilité |  | 0% | 0% | 72% | 
CCCC(=O)NCCCC(=O)NCc1ccccc1 [40 316] |  |  | 0% | 0% | 70% | 
CCCCNC(=O)CCNC(=O)C(C)(C)C [40 318] |  |  |  |  | 90% | 
CCCCN(CCCC)C(=O)CCNC(=O)C(C)(C)C [40 319] | hypomotilité |  | 0% | 0% |  | ED50 (souris [2]): 175 mg/kg
CCCCNC(=O)CC(C)NC(=O)CCC (stereo not drawn) [40 395] |  |  | 0% | 20% | 70% | 
CCCCNC(=O)CCC(C)NC(=O)CCC (stereo not drawn) [40 397] | hypermotilité |  | 0% | 20% | 100% | 
CCCNC(=O)CCCNC(=O)CCC [40 398] | hypermotilité |  | 0% | 0% |  | ED50 (souris [2]): 350 mg/kg
CCCC(=O)NCCCC(N)=O [40 401, Dioxo-2,7 diaza-1,6 décane] |  |  | 0% | 0% | 0% | 
CCCCNC(=O)C(C)CCNC(=O)CCC (stereo not drawn) [40 404] | hypermotilité |  | 0% | 0% | 40% | 
CCCCNC(=O)CCCNC(=O)CC(C)C [40 417] |  |  | 0% | 20% |  | 
CCCNC(=O)CCCNC(=O)CC(C)C [40 418] |  | 300 mg/kg | 0% | 0% |  | 
CCCCNC(=O)CCCNC(=O)C1CC1 [40 443] |  |  | 0% | 0% | 40% | 
CCCCN(CCCC)C(=O)CCCNC(=O)C(C)C [40 462] |  | 150 mg/kg | 0% | 0% | 30% | ED50 (souris [4]): 500 mg/kg
CCCC(=O)NCCCC(=O)NCC [40 463] |  | 380 mg/kg | 0% | 0% |  | 
CCCC(=O)NCCCC(=O)NC(C)C [40 466] |  |  | 0% | 0% | 30% | 
CCCCNC(=O)CCCNC(=O)C(C)C [40 467] |  | 150 mg/kg | 0% | 0% |  | ED50 (souris [4]): < 500 mg/kg
CCCCCNC(=O)CCCNC(=O)CCC [40 521] |  | 250 mg/kg |  |  |  | ED50 (souris [4]): 180 mg/kg
CCCCCCNC(=O)CCCNC(=O)CCC [40 947] |  | 250 mg/kg | 0% | 0% |  | ED50 (souris [4]): 400 mg/kg
CCCCCN(CCCCC)C(=O)CCCNC(=O)CCC [40 984] |  |  | 0% | 100% | 60% | 
CCCC(=O)NCCCC(=O)NC(C)(C)CC [40 989] |  |  | 0% | 80% | 50% | 
